Tested on: yeast strain YM 4271 transformed with pHISi3xE2Fwt
Assay: Growth of pHISi3xE2Fwt-transformed yeast colonies on histidine-free minimal medium agar with increasing 3-aminotriazole
Assay type: cell-based
Settings: no histidine
Description: 1 μg of pHISi3xE2Fwt was completely linearized with 10 U of XhoI for 1 hour, purified using the QiaQuick PCR Purification Kit (Qiagen/Hilden, Germany) according to the manufacturer's instructions and taken up in 50 μl of water. […] This culture was incubated with shaking at 30° C. until an optical density of 0.4-0.6 at 600 nm was reached. The culture was then removed by centrifugation at 1000× g for 5 minutes, and the cells were taken up in 1.5 ml of 100 mM lithium acetate pH 7.5, 10 mM Tris-HCl pH 7.5, 1 mM EDTA. 100 μl of said cells, 50 μl of the linearized plasmid and 100 μg of heat-denatured salmon sperm DNA were admixed with 600 μl of a PEG/LiAc solution (100 mM lithium acetate pH 7.5, 10 mM Tris-HCl pH 7.5, 1 mM EDTA, 40% (w/v) polyethylene glycol 4000) and incubated with shaking at 30° C. for 30 min. After adding 70 μl of dimethyl sulfoxide, the mixture was incubated at 42° C. for 15 min. The cells were subsequently removed by centrifugation, washed in 1 ml of 10 mM Tris-HCl pH 7.5, 1 mM EDTA and plated out in their entirety on a minimal medium agar plate without addition of histidine, on which 12 colonies had grown after 7 days at 30° C.

Nc1nc[nH]n1 [3-aminotriazole]
3-AT concentration at which growth was completely suppressed (one clone (yeast3xE2Fwt)): 2 mM | 3-AT concentration at which growth was suppressed markedly (one clone (yeast3xE2Fwt)): 0.5 mM | 3-AT concentration at which growth was inhibited (remaining 10 clones): > 30 mM | 3-AT concentration at which clones did not grow any more (this clone and another clone): 3 mM
